Experimental findings from ChEMBL document CHEMBL4373726, “Novel amides modified rupestonic acid derivatives as anti-influenza virus reagents” (Bioorg Med Chem Lett, 2019) are described below.

One data set has as its system Influenza A virus. Briefly: Antiviral activity against Influenza A virus H1N1 infected in dog MDCK cells assessed as inhibition in virus-induced cytopathic effect incubated for 40 hrs. Type of data set: functional, organism-based.
Data set [1] can be described thus: Selectivity index, ratio of TC50 for cytotoxicity against dog MDCK cells to IC50 for antiviral activity against Influenza A virus H1N1 infected in dog MDCK cells. The conditions noted are these: read-out: Selectivity Index. Type of data set: toxicity, cell-based.
Another data set has as its system Influenza A virus H3N2. As to the kind of experiment: Antiviral activity against Influenza A virus H3N2 infected in dog MDCK cells assessed as inhibition in virus-induced cytopathic effect incubated for 40 hrs. Type of data set: functional, organism-based.
The test system of another data set is Influenza B virus. Briefly: Antiviral activity against Influenza B virus infected in MDCK cells assessed as inhibition in virus-induced cytopathic effect incubated for 40 hrs. Type of data set: functional, organism-based.
Data set [2] in a line: Cytotoxicity against MDCK cells assessed as reduction in cell viability incubated for 48 hrs. It is filed as cell-based, Canis lupus familiaris. The conditions noted are these: dog, read-out: TC50.
Data set [3] in a line: Selectivity index, ratio of TC50 for cytotoxicity against dog MDCK cells to IC50 for antiviral activity against Influenza A virus H3N2 infected in dog MDCK cells. The conditions noted are these: read-out: Selectivity Index. It is filed as toxicity, cell-based.
Data set [4] can be described thus: Selectivity index, ratio of TC50 for cytotoxicity against dog MDCK cells to IC50 for antiviral activity against Influenza B virus infected in dog MDCK cells. Type of data set: toxicity, cell-based. The conditions noted are these: read-out: Selectivity Index.

A value given as a limit tells only on which side of the number the result lay.

In the case of `C=C(C(=O)OC)[C@@H]1CC[C@H](C)[C@@H]2CC(=O)C(C)=C2C1`, the IC50 was 72.7 µM with Influenza A virus, greater than 71.8 µM in the data set with Influenza A virus H3N2 and greater than 71.1 µM in the data set with Influenza B virus. The selectivity ratio in data set [1] worked out at 3.
Take `C=C(C(=O)NCc1ccc(B(O)O)cc1)[C@@H]1CC[C@H](C)[C@@H]2CC(=O)C(C)=C2C1`: the CC50 at 48 h in data set [2] turned out to be 262 µM. The figures for the IC50 in the data set on Influenza A virus, in the data set with Influenza A virus H3N2 and with Influenza B virus were 85.4 µM, 65.9 µM and 80 µM, respectively. For the same compound, the figures for the selectivity ratio in data set [1], in data set [3] and in data set [4] were 3.3, 4 and 3.3, respectively.
For the compound `C=C(C(=O)Nc1ncc(B(O)O)cn1)[C@@H]1CC[C@H](C)[C@@H]2CC(=O)C(C)=C2C1`, in data set [2], the CC50 at 48 h is 315 µM. In addition, the IC50 in the data set with Influenza A virus is 96 µM; in the data set with Influenza A virus H3N2, 87.4 µM; in the data set with Influenza B virus, 135 µM. For the same compound, the results for the selectivity ratio in data set [1], in data set [3] and in data set [4] were 3.3, 3.6 and 2.4, respectively.
Regarding `C=C(C(=O)Nc1ccc2c(c1)COB2O)[C@@H]1CC[C@H](C)[C@@H]2CC(=O)C(C)=C2C1`, in data set [2], the CC50 at 48 h came to 254 µM. Besides, the IC50 with Influenza A virus, in the data set with Influenza A virus H3N2 and in the data set with Influenza B virus was greater than 49.1 µM each time.
Regarding `C=C(C(=O)NCc1cccc(B(O)O)c1)[C@@H]1CC[C@H](C)[C@@H]2CC(=O)C(C)=C2C1`, in data set [2], the CC50 at 48 h worked out at 252 µM. Also, the IC50 amounted to 43.3 µM in the data set with Influenza A virus, 63.5 µM with Influenza A virus H3N2 and 90.3 µM in the data set on Influenza B virus. For the same compound, the values for the selectivity ratio in data set [1], in data set [3] and in data set [4] were 6, 4 and 2.8, respectively.
With `C=C(C(=O)OC)[C@@H]1CC[C@H](C)[C@H]2C(=C(C)C(=O)[C@H]2NC(=O)C(C)CCl)C1` (some centres not stated), the CC50 at 48 h in data set [2] was determined as 735 µM. Besides, the IC50 was greater than 422 µM in the data set on Influenza A virus, 422 µM in the data set with Influenza A virus H3N2 and greater than 422 µM with Influenza B virus. In addition, the selectivity ratio in data set [3] amounted to 1.7.
As to `C=C(C(=O)OC)[C@@H]1CC[C@H](C)[C@H]2C(=C(C)C(=O)[C@H]2NS(=O)(=O)c2ccc(F)cc2)C1`, the CC50 at 48 h in data set [2] stood at 25.1 µM. The values for the IC50 with Influenza A virus, with Influenza A virus H3N2 and in the data set on Influenza B virus were 8.1 µM, 10.2 µM and 14.7 µM, respectively. The selectivity ratio in data set [1] stood at 3; in data set [3], 2.5; in data set [4], 1.7.
In the case of `C=C(C(=O)OC)[C@@H]1CC[C@H](C)[C@H]2C(=C(C)C(=O)[C@H]2NS(C)(=O)=O)C1`, the CC50 at 48 h in data set [2] came to 226 µM. For the same compound, the IC50 in the data set on Influenza A virus worked out at 40.5 µM; in the data set with Influenza A virus H3N2, 52.4 µM; in the data set with Influenza B virus, 40.3 µM. Further, the selectivity ratio in data set [1] turned out to be 5.6; in data set [3] it was 4.3; in data set [4] it was 5.6.
Consider `C=C(C(=O)Nc1ccc(B(O)O)cc1)[C@@H]1CC[C@H](C)[C@@H]2CC(=O)C(C)=C2C1`, for which the CC50 at 48 h in data set [2] was 939 µM. Besides, the IC50 in the data set on Influenza A virus is greater than 452 µM; in the data set on Influenza A virus H3N2, greater than 452 µM; with Influenza B virus, greater than 451 µM.
In the case of `C=C(C(=O)Nc1cccc(B(O)O)c1)[C@@H]1CC[C@H](C)[C@@H]2CC(=O)C(C)=C2C1`, the CC50 at 48 h in data set [2] stood at 632 µM. In addition, the values for the IC50 with Influenza A virus, in the data set on Influenza A virus H3N2 and in the data set on Influenza B virus were 129 µM, 146 µM and 147 µM, respectively. In addition, the results for the selectivity ratio in data set [1], in data set [3] and in data set [4] were 4.9, 5.3 and 4.3, respectively.
As to `C=C(C(=O)OC)[C@@H]1CC[C@H](C)[C@H]2C(=C(C)C(=O)[C@H]2NC(=O)c2ccccc2)C1`, the CC50 at 48 h in data set [2] was 84.3 µM. Further, the IC50 in the data set with Influenza A virus was 38.4 µM; in the data set on Influenza A virus H3N2, greater than 16.5 µM; in the data set on Influenza B virus, 43.8 µM. In addition, the selectivity ratio was determined as 2.2 in data set [1] and 1.9 in data set [4].
With `C=C(C(=O)OC)[C@@H]1CC[C@H](C)[C@H]2C(=C(C)C(=O)[C@H]2NC(C)=O)C1`, the CC50 at 48 h in data set [2] was 753 µM. Also, the IC50 was 174 µM with Influenza A virus, greater than 175 µM with Influenza A virus H3N2 and 522 µM with Influenza B virus. Moreover, the selectivity ratio in data set [1] is 4.9; in data set [4] it was 1.7.
As to `C=C(C(=O)OC)[C@@H]1CC[C@H](C)[C@H]2C(=C(C)C(=O)[C@H]2NC(=O)CNC(=O)c2ccccc2)C1`, the CC50 at 48 h in data set [2] was 488 µM. For the same compound, the IC50 is 101 µM in the data set with Influenza A virus, greater than 114 µM in the data set on Influenza A virus H3N2 and greater than 114 µM with Influenza B virus. In addition, in data set [1], the selectivity ratio was 4.9.
For `C=C(C(=O)OC)[C@@H]1CC[C@H](C)[C@H]2C(=C(C)C(=O)[C@H]2NC(=O)c2ccc(B(O)O)cc2)C1`, the CC50 at 48 h in data set [2] was 188 µM. The figures for the IC50 in the data set on Influenza A virus, with Influenza A virus H3N2 and in the data set with Influenza B virus were 44.6 µM, greater than 44.5 µM and greater than 44.2 µM, respectively. Besides, the selectivity ratio in data set [1] came to 4.3.
On to `C=C(C(=O)OC)[C@@H]1CC[C@H](C)[C@H]2C(=C(C)C(=O)[C@H]2NC(=O)CC#N)C1`, for which the CC50 at 48 h in data set [2] was determined as 1450 µM. Moreover, the IC50 with Influenza A virus was 485 µM; in the data set on Influenza A virus H3N2, greater than 485 µM; with Influenza B virus it was 484 µM. In addition, the selectivity ratio in data set [1] and in data set [4] was 3 each time.
`C=C(C(=O)OC)[C@@H]1CC[C@H](C)[C@H]2C(=C(C)C(=O)[C@H]2NS(=O)(=O)c2ccc(C)cc2)C1`: in data set [2], the CC50 at 48 h is 61.1 µM. In addition, the IC50 in the data set on Influenza A virus was 14.5 µM; with Influenza A virus H3N2, greater than 14.9 µM; in the data set on Influenza B virus, 14.1 µM. The selectivity ratio in data set [1] and in data set [4] was 4.3 each time.
Take `CCOC(=O)C1=C[C@@H](OC(CC)CC)[C@H](NC(C)=O)[C@@H](N)C1` [OSELTAMIVIR]: the CC50 at 48 h in data set [2] is 1410 µM. Further, the IC50 was 15.6 µM in the data set on Influenza A virus, 11.3 µM in the data set with Influenza A virus H3N2 and greater than 488 µM in the data set with Influenza B virus. For the same compound, in data set [3], the selectivity ratio was 132.
Regarding `C=C(C(=O)O)[C@@H]1CC[C@H](C)[C@@H]2CC(=O)C(C)=C2C1` [PECHUELOIC ACID], the selectivity ratio in data set [1] stood at 4.3; in data set [3], 4.3; in data set [4] it was 10.
In the case of `NC(=O)c1ncn([C@@H]2O[C@H](CO)[C@@H](O)[C@H]2O)n1` [RIBAVIRIN], the IC50 in the data set with Influenza A virus was found to be 8.5 µM; with Influenza A virus H3N2, 10.6 µM; in the data set on Influenza B virus it was 8 µM. The selectivity ratio in data set [1] was 363; in data set [3], 476; in data set [4] it was 714.
